From patent US7064124B2, “NF-κB inhibitor containing substituted benzoic acid derivative as active ingredient” (Daiichi Suntory Pharma Co., Ltd., priority 2001, dated 2006)

tested on: NF-κB; test: NF-κB luciferase reporter assay in A549/NF-κBLuc cells stimulated with IL-1β; assay type: cell-based, human; settings: Homo sapiens, A549, A549/NF-κBLuc cells; compound added 1 hour before IL-1β, then 3 hours incubation; luciferase activity; read-out: NF-κB Inhibitory Activity (IC50)
Protocol: Effect on Human Lung Cancer-Derived Cell A549 (A549/NF-κBluc) Containing Stably Introduced Luciferase Plasmid (pNFκB-Luc, Stratagene. U.S.A.) Regulated by NF-κB Binding Sequence
Using Lipofectamine (Lifetech Oriental, Tokyo), pNFκB-Luc and pSV2neo (Clontech, U.S.A.) were co-transfected into the A549 cell (ATCC CCL185) and G418 sulfate (1 mg/ml, Lifetech Oriental) was added to the culture medium to select cells containing stably introduced pNFκB-Luc A549/NF-κBLuc.
The compound obtained in Examples each was added to A549/NF-κBLuc and one hour after that, IL-1β capable of activating NF-κB was added. The incubation was further continued for 3 hours.
NF-κB Inhibitory Activity (IC50) of Substituted Benzoic Acid Derivitives: […]

Structure (SMILES)	IC50
COC1=C(OC)C(=O)C(Cc2ccc(O)c(C(=O)Nc3ccc(OC)c(OC)c3)c2)=C(C)C1=O [Example 115, N-[5-(5,6-Dimethoxy-3-methyl-1,4-benzoquinon-2-yl)methyl-2-hydroxybenzoyl]-3,4-dimethoxyaniline]	36 µM
COC1=C(OC)C(=O)C(Cc2ccc(OCc3cccnc3)c(C(=O)Nc3ccc(OC)cc3)c2)=C(C)C1=O [Example 94, N-[5-(5,6-Dimethoxy-3-methyl-1,4-benzoquinon-2-yl)methyl-2-(3-pyridylmethyloxy)benzoyl]-4-methoxyaniline]	45 µM
COC1=C(OC)C(=O)C(Cc2ccc(O)c(C(=O)Nc3ccc(OC)cc3)c2)=C(C)C1=O [Example 76, N-[5-(5,6-Dimethoxy-3-methyl-1,4-benzoquinon-2-yl)methyl-2-hydroxybenzoyl]-4-methoxyaniline]	7 µM
COC1=C(OC)C(=O)C(Cc2ccc(O)c(C(=O)N(C)c3ccc(OC)cc3)c2)=C(C)C1=O [Example 164, N-Methyl-[5-(5,6-dimethoxy-3-methyl-1,4-benzoquinon-2-yl)methyl-2-hydroxybenzoyl]-4-methoxyaniline]	20 µg/mL
COC1=C(OC)C(=O)C(Cc2ccc(OC(C)=O)c(C(=O)Nc3ccc(N4CCOCC4)nc3)c2)=C(C)C1=O [Example 224, N-(6-Morpholinopyridin-3-yl)-5-(5,6-dimethoxy-3-methyl-1,4-benzoquinon-2-yl)methyl-2-acetoxybenzamide]	24 µg/mL
COC1=C(OC)C(=O)C(Cc2cccc(C(=O)N3CCCCC3)c2OC(C)=O)=C(C)C1=O [Example 71, N-[3-(5,6-Dimethoxy-3-methyl-1,4-benzoquinon-2-yl)methyl-2-acetoxybenzoyl]piperidine]	36 µM
COC1=C(OC)C(=O)C(Cc2cccc(C(=O)N3CCOCC3)c2OC(C)=O)=C(C)C1=O [Example 72, N-[3-(5,6-Dimethoxy-3-methyl-1,4-benzoquinon-2-yl)methyl-2-acetoxybenzoyl]morpholine]	43 µM
COC1=C(OC)C(=O)C(Cc2cccc(C(=O)Nc3ccc(OC)cc3)c2OC(C)=O)=C(C)C1=O [Example 73, N-[3-(5,6-Dimethoxy-3-methyl-1,4-benzoquinon-2-yl)methyl-2-acetoxybenzoyl]-4-methoxyaniline]	31 µM
COC1=C(OC)C(=O)C(Cc2ccc(OCc3cccnc3)c(C(=O)N3CCC(C)CC3)c2)=C(C)C1=O [Example 127, N-[5-(5,6-Dimethoxy-3-methyl-1,4-benzoquinon-2-yl)methyl-2-(3-pyridylmethyloxy)benzoyl]-4-methylpiperidine]	24 µM
COC1=C(OC)C(=O)C(Cc2cccc(C(=O)Nc3cccnc3)c2OC(C)=O)=C(C)C1=O [Example 206, N-(Pyridin-3-yl)-3-(5,6-dimethoxy-3-methyl-1,4-benzoquinon-2-yl)methyl-2-acetoxybenzamide]	87 µg/mL
COC1=C(OC)C(=O)C(Cc2ccc(O)c(C(=O)Nc3ccc(C(F)(F)F)cc3)c2)=C(C)C1=O [Example 120, N-[5-(5,6-Dimethoxy-3-methyl-1,4-benzoquinon-2-yl)methyl-2-hydroxybenzoyl]-4-trifluoromethylaniline]	1.7 µM
COC1=C(OC)C(=O)C(Cc2ccc(OCc3ccncc3)c(C(=O)N3CCCCC3)c2)=C(C)C1=O [Example 95, N-[5-(5,6-Dimethoxy-3-methyl-1,4-benzoquinon-2-yl)methyl-2-(4-pyridylmethyloxy)benzoyl]piperidine]	35 µM
COC1=C(OC)C(=O)C(Cc2ccc(C(=O)N3CCCCC3)c(OCc3ccccc3)c2)=C(C)C1=O [Example 57, N-[4-(5,6-Dimethoxy-3-methyl-1,4-benzoquinon-2-yl)methyl-2-benzyloxybenzoyl]piperidine]	29 µM
COC1=C(OC)C(=O)C(Cc2cccc(OCc3ccccc3)c2C(=O)Nc2ccc(OC)cc2)=C(C)C1=O [Example 60, N-[6-(5,6-Dimethoxy-3-methyl-1,4-benzoquinon-2-yl)methyl-2-benzyloxybenzoyl]-4-methoxyaniline]	19 µM
COC1=C(OC)C(=O)C(Cc2ccc(OC(C)C)c(C(=O)Nc3ccc(OC)cc3)c2)=C(C)C1=O [Example 85, N-[5-(5,6-Dimethoxy-3-methyl-1,4-benzoquinon-2-yl)methyl-2-isopropoxybenzoyl]-4-methoxyaniline]	65 µM
COC1=C(OC)C(=O)C(Cc2cccc(C(=O)N3CCCCC3)c2O)=C(C)C1=O [Example 77, N-[3-(5,6-Dimethoxy-3-methyl-1,4-benzoquinon-2-yl)methyl-2-hydroxybenzoyl]piperidine]	35 µM
COC1=C(OC)C(=O)C(Cc2ccc(OCc3cccnc3)c(C(=O)N3CCCCC3)c2)=C(C)C1=O [Example 92, N-[5-(5,6-Dimethoxy-3-methyl-1,4-benzoquinon-2-yl)methyl-2-(3-pyridylmethyloxy)benzoyl]piperidine]	49 µM

Structure (SMILES)	IC50
COC1=C(OC)C(=O)C(Cc2ccc(Oc3ccccc3)c(C(=O)N3CCCCC3)c2)=C(C)C1=O [Example 86, N-[5-(5,6-Dimethoxy-3-methyl-1,4-benzoquinon-2-yl)methyl-2-phenoxybenzoyl]piperidine]	27 µM
COC1=C(OC)C(=O)C(Cc2ccc(OC(C)=O)c(C(=O)Nc3ccc(OC)cc3)c2)=C(C)C1=O [Example 70, N-[5-(5,6-Dimethoxy-3-methyl-1,4-benzoquinon-2-yl)methyl-2-acetoxybenzoyl]-4-methoxyaniline]	15 µM
COC1=C(OC)C(=O)C(Cc2ccc(OC(C)=O)c(C(=O)Nc3cccnc3N3CCOCC3)c2)=C(C)C1=O [Example 222, N-(2-Morpholinopyridin-3-yl)-5-(5,6-dimethoxy-3-methyl-1,4-benzoquinon-2-yl)methyl-2-acetoxybenzamide]	77 µg/mL
COC1=C(OC)C(=O)C(Cc2cccc(C(=O)N3CCCCC3)c2OCc2ccccc2)=C(C)C1=O [Example 64, N-[3-(5,6-Dimethoxy-3-methyl-1,4-benzoquinon-2-yl)methyl-2-benzyloxybenzoyl]piperidine]	33 µM
COC1=C(OC)C(=O)C(Cc2ccc(OCc3cccnc3)c(C(=O)Nc3cc(OC)c(OC)c(OC)c3)c2)=C(C)C1=O [Example 128, N-[5-(5,6-Dimethoxy-3-methyl-1,4-benzoquinon-2-yl)methyl-2-(3-pyridylmethyloxy)benzoyl]-3,4,5-trimethoxyaniline]	19 µM
COC1=C(OC)C(=O)C(Cc2ccc(Oc3ccccc3)c(C(=O)N3CCCCC3C)c2)=C(C)C1=O (stereo not shown) [Example 125, N-[5-(5,6-Dimethoxy-3-methyl-1,4-benzoquinon-2-yl)methyl-2-phenoxybenzoyl]-2-methylpiperidine]	19 µM
COC1=C(OC)C(=O)C(Cc2ccc(OC(C)=O)c(C(=O)Nc3cccnc3)c2)=C(C)C1=O [Example 201, N-(Pyridin-3-yl)-5-(5,6-dimethoxy-3-methyl-1,4-benzoquinon-2-yl)methyl-2-acetoxybenzamide]	16 µg/mL
COC1=C(OC)C(=O)C(Cc2ccc(OCc3ccccc3)c(C(=O)N3CCCCC3)c2)=C(C)C1=O [Example 61, N-[5-(5,6-Dimethoxy-3-methyl-1,4-benzoquinon-2-yl)methyl-2-benzyloxybenzoyl]piperidine]	31 µM
COC1=C(OC)C(=O)C(Cc2ccc(OC(C)=O)c(C(=O)Nc3ccnc(Cl)c3)c2)=C(C)C1=O [Example 226, N-(2-Chloropyridin-4-yl)-5-(5,6-dimethoxy-3-methyl-1,4-benzoquinon-2-yl)methyl-2-acetoxybenzamide]	19 µg/mL
COC1=C(OC)C(=O)C(Cc2cccc(C(=O)N3CCOCC3)c2OCc2ccccc2)=C(C)C1=O [Example 65, N-[3-(5,6-Dimethoxy-3-methyl-1,4-benzoquinon-2-yl)methyl-2-benzyloxybenzoyl]morpholine]	37 µM
COC1=C(OC)C(=O)C(Cc2ccc(Oc3ccccc3)c(C(=O)N3CCOCC3)c2)=C(C)C1=O [Example 87, N-[5-(5,6-Dimethoxy-3-methyl-1,4-benzoquinon-2-yl)methyl-2-phenoxybenzoyl]morpholine]	19 µM
COC1=C(OC)C(=O)C(Cc2ccc(O)c(C(=O)Nc3ccc(Cl)cc3)c2)=C(C)C1=O [Example 117]	20 µM
COC1=C(OC)C(=O)C(Cc2ccc(OC)c(C(=O)Nc3ccc(OC)cc3)c2)=C(C)C1=O [Example 82, N-[5-(5,6-Dimethoxy-3-methyl-1,4-benzoquinon-2-yl)methyl-2-methoxybenzoyl]-4-methoxyaniline]	84 µM
COC1=C(OC)C(=O)C(Cc2ccc(O)c(C(=O)Nc3ccc(N)cc3)c2)=C(C)C1=O [Example 204, N-[5-(5,6-Dimethoxy-3-methyl-1,4-benzoquinon-2-yl)methyl-2-hydroxybenzoyl]-p-phenylenediamine]	47 µg/mL
COC1=C(OC)C(=O)C(Cc2ccc(OCc3cccnc3)c(C(=O)N3CCCc4ccccc43)c2)=C(C)C1=O [Example 126, N-[5-(5,6-Dimethoxy-3-methyl-1,4-benzoquinon-2-yl)methyl-2-(3-pyridylmethyloxy)benzoyl]-1,2,3,4-tetrahydroquinoline]	24 µM
COC1=C(OC)C(=O)C(Cc2ccc(OC(C)=O)c(C(=O)Nc3ccc(C#N)cc3)c2)=C(C)C1=O [Example 111, N-[5-(5,6-Dimethoxy-3-methyl-1,4-benzoquinon-2-yl)methyl-2-acetoxybenzoyl]-4-cyanoaniline]	25 µM
COC1=C(OC)C(=O)C(Cc2ccc(O)c(C(=O)Nc3ccc(C(C)=O)cc3)c2)=C(C)C1=O [Example 116, N-[5-(5,6-Dimethoxy-3-methyl-1,4-benzoquinon-2-yl)methyl-2-hydroxybenzoyl]-4-acetylaniline]	17 µM
